From ChEMBL document CHEMBL1201862, “PubChem BioAssay data set” (2004)
Activity calls are given as the source filed them.

Experiments:
[1] = biological target: Paired box protein Pax-8 (Homo sapiens, UniProt Q06710); assay: inhibitors of PAX8-driven TPO luciferase reporter, dose response, RMG-I cells, cherry-pick (AID 687027); format: functional, cell-based;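 also: luciferase reporter driven by Pax8 target thyroperoxidase promoter measured by SteadyGlo luminescence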
[2] = NIH:OVCAR-3 ovarian cancer cell cytotoxicity, dose response, PAX8 inhibitor project, plate reader, dry powder samples (AID 743044); format: functional, cell-based
[3] = IGROV1 ovarian cancer cell cytotoxicity, dose response, PAX8 inhibitor project, plate reader, dry powder samples (AID 743043); format: functional, cell-based; settings: IGROV-1
[4] = A Cell Based Secondary Assay To Explore Cytotoxicity of Compounds that Sensitize Mycobacterium Tuberculosis to Beta-Lactam Antibiotics.; format: functional
[5] = inhibitors of SNCA 5'UTR-driven reporter translation, confirmation, H4 neuroglioma cells, luminescence (AID 1988); format: functional, cell-based
[6] = inhibitors of firefly luciferase expression or activity, dose response, H4 neuroglioma cells, luminescence (AID 1990); format: functional, cell-based
[7] = Luminescence Cell-Based Dose Response HTS to Identify Inhibitors of 5'UTR Stem-Loop Driven Prion Protein mRNA Translation in H4 Neuroglioblastoma Cells. [Related pubchem assays: 1827 (Project Summary), 1813 (Primary HTS)]; format: functional
[8] = biological target: Kallikrein-7 (Homo sapiens, UniProt P49862); assay: Fluorescence Intensity-based biochemical primary high throughput dose response assay to identify activators of kallikrein-7 (K7) zymogen.
Chain of Kallikrein-7 (P49862 whole entry): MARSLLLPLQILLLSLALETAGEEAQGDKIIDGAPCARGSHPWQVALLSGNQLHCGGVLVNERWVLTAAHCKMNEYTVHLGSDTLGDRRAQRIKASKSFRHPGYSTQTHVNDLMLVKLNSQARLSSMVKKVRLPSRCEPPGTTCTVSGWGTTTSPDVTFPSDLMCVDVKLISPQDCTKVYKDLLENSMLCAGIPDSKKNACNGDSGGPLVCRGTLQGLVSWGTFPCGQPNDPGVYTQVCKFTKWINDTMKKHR

[9] = biological target: Voltage-dependent T-type calcium channel subunit alpha-1H (Homo sapiens, UniProt O95180); format: functional;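 also: channel activity triggered by adding a high calcium stimulation buffer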
Chain of Voltage-dependent T-type calcium channel subunit alpha-1H (O95180 whole entry): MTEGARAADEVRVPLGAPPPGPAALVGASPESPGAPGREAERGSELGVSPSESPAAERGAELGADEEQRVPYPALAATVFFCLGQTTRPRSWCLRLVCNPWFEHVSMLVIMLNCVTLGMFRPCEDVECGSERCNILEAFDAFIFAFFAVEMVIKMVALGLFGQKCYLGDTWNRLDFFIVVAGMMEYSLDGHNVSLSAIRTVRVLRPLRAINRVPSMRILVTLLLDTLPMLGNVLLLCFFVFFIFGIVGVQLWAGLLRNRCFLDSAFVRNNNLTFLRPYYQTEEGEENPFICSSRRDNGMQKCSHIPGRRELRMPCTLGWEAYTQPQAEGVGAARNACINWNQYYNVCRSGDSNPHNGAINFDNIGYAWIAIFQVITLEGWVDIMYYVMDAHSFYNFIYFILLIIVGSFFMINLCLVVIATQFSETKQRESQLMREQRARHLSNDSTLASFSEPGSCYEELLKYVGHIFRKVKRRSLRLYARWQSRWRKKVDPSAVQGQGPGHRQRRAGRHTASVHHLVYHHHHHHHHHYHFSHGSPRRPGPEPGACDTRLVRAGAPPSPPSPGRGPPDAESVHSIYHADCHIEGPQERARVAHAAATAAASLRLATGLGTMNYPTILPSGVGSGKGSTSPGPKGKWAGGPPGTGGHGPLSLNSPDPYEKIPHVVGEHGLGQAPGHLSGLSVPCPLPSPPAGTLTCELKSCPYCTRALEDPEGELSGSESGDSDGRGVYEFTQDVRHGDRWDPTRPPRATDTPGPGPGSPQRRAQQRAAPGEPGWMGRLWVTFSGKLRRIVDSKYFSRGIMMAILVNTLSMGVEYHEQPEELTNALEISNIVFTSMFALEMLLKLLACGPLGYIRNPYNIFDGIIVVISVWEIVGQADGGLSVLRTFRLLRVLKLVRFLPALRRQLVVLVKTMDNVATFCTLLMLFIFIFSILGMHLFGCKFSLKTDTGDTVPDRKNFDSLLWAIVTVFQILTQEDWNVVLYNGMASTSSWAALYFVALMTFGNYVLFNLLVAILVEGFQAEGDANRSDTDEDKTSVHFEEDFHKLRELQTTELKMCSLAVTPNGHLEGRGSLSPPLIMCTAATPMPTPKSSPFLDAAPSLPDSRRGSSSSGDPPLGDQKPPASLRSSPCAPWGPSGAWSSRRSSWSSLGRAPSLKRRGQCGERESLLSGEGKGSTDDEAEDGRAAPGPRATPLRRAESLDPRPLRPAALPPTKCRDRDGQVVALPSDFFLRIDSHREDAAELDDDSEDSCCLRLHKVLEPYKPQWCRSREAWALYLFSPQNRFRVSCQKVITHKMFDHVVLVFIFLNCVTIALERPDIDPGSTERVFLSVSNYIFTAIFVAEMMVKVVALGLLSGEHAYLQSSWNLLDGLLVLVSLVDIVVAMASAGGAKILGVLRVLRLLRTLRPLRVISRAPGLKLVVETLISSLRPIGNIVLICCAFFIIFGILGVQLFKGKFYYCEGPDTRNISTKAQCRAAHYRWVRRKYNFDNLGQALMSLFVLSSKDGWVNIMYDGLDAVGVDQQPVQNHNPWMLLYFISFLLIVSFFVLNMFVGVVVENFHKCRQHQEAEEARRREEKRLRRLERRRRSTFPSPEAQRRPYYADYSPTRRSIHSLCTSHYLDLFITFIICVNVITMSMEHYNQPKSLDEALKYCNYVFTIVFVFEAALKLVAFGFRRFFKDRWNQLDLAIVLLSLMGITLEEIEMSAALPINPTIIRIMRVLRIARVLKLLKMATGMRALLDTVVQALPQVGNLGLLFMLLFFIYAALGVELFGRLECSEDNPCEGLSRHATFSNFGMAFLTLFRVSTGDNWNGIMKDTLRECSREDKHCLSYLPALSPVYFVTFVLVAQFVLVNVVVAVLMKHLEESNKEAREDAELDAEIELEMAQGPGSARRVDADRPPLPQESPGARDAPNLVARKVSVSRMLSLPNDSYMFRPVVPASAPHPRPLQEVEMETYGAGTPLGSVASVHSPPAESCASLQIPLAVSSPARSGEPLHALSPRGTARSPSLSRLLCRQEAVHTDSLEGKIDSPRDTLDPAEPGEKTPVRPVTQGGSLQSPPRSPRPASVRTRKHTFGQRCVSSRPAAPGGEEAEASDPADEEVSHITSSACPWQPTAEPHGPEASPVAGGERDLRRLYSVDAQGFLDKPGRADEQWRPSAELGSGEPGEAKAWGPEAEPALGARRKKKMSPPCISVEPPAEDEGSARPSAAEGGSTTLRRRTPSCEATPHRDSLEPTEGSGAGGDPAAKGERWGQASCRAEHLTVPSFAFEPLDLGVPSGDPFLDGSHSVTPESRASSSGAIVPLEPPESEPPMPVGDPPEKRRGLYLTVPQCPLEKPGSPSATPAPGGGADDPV

[10] = biological target: FAD-linked sulfhydryl oxidase ALR (Homo sapiens, UniProt P55789); assay: inhibitors of human ALR sulfhydryl oxidase, dose response, biochemical, H2O2 detection, luminescence, cherry-pick (AID 493248)
Chain of FAD-linked sulfhydryl oxidase ALR (P55789 whole entry): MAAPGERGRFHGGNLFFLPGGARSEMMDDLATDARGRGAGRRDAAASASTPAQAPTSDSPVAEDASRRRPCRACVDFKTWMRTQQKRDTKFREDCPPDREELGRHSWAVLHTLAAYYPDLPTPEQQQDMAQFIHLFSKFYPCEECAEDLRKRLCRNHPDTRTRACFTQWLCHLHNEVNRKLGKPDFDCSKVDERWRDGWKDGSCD

[11] = HEp-2 cell cytotoxicity, dose response, cytotoxicity control for RSV inhibitor project, HTS (AID 2410); format: functional; settings: human respiratory syncytial virus
[12] = A cytotoxicity screen of small molecule inhibitors of the PhoP region in Salmonella typhi identified in the primary screen. [Related pubchem assays: 1850, 1864, 1985 ]; format: functional
[13] = biological target: T1, Corticotropin-releasing factor receptor 2/Corticotropin-releasing factor-binding protein (Homo sapiens, UniProt P24387+Q13324); assay: activators of CRF receptor 2 with binding protein – uHTS hits, confirmation (AID 602473); format: functional; settings: read-out: EC50_Mean
T1 sequence (Q13324 whole entry): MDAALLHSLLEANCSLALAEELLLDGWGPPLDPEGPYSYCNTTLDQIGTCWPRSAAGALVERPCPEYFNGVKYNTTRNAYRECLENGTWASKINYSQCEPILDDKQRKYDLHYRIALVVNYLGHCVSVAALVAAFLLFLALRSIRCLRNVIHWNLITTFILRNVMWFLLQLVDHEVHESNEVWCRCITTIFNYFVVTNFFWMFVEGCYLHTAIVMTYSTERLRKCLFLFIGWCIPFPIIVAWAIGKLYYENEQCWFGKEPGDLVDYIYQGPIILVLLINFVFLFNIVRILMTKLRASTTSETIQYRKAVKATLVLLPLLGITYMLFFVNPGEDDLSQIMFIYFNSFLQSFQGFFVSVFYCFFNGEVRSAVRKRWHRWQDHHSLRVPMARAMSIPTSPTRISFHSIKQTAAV
T1 sequence (P24387 whole entry): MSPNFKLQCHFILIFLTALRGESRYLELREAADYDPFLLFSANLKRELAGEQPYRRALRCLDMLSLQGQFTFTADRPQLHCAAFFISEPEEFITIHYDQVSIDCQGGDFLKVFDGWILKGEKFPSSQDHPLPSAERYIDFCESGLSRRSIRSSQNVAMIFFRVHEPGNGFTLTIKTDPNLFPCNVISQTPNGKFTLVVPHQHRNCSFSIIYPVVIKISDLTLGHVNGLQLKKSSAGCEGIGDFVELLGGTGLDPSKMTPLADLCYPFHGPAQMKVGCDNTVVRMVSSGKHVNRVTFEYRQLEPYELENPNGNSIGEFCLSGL

[14] = biological target: T1, Corticotropin-releasing factor receptor 2/Corticotropin-releasing factor-binding protein; assay: Dose Response confirmation of uHTS hits for small molecule antagonists of the CRF-binding protein and CRF-R2 receptor complex.; format: functional; settings: read-out: IC50_Mean
[15] = test system: H9c2; assay: cells; format: functional, cell-based; settings: Rattus norvegicus, H9c2, Myocardium;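 also: confirmatory concentration-response retest of ultra-high-throughput screening hits for modulation of myocardial damage; cell death induced by hydrogen peroxide oxidative stress; compound pretreatment for 60 min then peroxide exposure for 2 h; potency is for protecting the cells against peroxide damage rather than for killing them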
[16] = test system: BJ; assay: cytotoxicity toward BJ-TERT fibroblasts, dose response, cell-based, RAS-independent, luminescence (AID 1933); format: functional; settings: Homo sapiens
[17] = cytotoxicity toward DRD oncogenic fibroblasts, dose response, cell-based, non-viral oncogenic, luminescence (AID 1934); format: functional; settings: Homo sapiens
[18] = test system: BJ; assay: cells; format: functional, cell-based; settings: Homo sapiens
[19] = test system: BJ; assay: cytotoxicity toward BJ-TERT-LT-ST fibroblasts, dose response, cell-based, RAS-independent, luminescence (AID 1935); format: functional; settings: Homo sapiens;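 also: BJ fibroblasts immortalized with TERT plus LT and ST oncogenes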
[20] = cells; format: functional
[21] = Vero E6 cell cytotoxicity, dose response, cytotoxicity control for non-replicating M. tuberculosis project, secondary assay (AID 492998); format: functional, VeroE6; settings: Vero C1008
[22] = biological target: 72 kDa type IV collagenase (Homo sapiens, UniProt P08253); assay: Dose Response validation of uHTS RPN11 inhibitor hits using a MMP-2 Fluorescence assay.; format: functional
Chain of 72 kDa type IV collagenase (P08253 whole entry): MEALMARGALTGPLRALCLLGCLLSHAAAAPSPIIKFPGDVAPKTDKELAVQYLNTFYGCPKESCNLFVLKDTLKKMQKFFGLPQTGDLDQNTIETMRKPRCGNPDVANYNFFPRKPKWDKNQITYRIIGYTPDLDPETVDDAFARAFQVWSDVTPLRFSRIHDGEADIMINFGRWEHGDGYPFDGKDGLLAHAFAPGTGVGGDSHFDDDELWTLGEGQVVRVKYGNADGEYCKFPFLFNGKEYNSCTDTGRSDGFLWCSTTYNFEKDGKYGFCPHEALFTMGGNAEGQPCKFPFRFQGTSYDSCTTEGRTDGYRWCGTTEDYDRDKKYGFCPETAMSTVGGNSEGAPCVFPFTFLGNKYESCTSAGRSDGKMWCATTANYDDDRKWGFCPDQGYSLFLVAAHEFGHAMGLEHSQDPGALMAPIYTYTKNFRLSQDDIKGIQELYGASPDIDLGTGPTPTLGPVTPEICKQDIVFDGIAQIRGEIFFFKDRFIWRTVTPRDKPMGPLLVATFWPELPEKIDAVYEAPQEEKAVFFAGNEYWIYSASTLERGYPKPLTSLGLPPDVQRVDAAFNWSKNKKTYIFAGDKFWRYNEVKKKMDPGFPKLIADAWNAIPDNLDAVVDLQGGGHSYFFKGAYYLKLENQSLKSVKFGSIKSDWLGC

[23] = biological target: 26S proteasome non-ATPase regulatory subunit 14 (Homo sapiens, UniProt O00487); assay: inhibition of proteasome subunit RPN11 – biochemical, fluorescence polarization, uHTS hits, confirmation (AID 602368); format: functional
Chain of 26S proteasome non-ATPase regulatory subunit 14 (O00487 whole entry): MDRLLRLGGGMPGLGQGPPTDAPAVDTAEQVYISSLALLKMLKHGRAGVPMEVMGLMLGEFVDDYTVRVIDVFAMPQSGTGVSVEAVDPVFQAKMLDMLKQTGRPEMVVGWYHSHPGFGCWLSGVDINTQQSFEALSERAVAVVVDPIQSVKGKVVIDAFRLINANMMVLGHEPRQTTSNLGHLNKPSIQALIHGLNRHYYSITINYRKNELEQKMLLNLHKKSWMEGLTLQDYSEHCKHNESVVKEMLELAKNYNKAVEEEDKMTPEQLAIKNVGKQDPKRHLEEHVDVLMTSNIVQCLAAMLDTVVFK

[24] = biological target: Prothrombin (Bos taurus, UniProt P00735); assay: thrombin inhibition, dose response, biochemical, fluorescence polarization, uHTS hits (AID 602369); format: functional
[25] = biological target: T2, Polyadenylate-binding protein 1 (Homo sapiens, UniProt P11940); assay: PABP1 MLLE–PAM2 interaction inhibitors, dose response, miRNA deadenylation inhibitor project, biochemical, fluorescence polarization, Cy5-PAM2 peptide, secondary (AID 602260); format: functional; settings: read-out: IC50_Mean
T2 sequence (P11940 whole entry): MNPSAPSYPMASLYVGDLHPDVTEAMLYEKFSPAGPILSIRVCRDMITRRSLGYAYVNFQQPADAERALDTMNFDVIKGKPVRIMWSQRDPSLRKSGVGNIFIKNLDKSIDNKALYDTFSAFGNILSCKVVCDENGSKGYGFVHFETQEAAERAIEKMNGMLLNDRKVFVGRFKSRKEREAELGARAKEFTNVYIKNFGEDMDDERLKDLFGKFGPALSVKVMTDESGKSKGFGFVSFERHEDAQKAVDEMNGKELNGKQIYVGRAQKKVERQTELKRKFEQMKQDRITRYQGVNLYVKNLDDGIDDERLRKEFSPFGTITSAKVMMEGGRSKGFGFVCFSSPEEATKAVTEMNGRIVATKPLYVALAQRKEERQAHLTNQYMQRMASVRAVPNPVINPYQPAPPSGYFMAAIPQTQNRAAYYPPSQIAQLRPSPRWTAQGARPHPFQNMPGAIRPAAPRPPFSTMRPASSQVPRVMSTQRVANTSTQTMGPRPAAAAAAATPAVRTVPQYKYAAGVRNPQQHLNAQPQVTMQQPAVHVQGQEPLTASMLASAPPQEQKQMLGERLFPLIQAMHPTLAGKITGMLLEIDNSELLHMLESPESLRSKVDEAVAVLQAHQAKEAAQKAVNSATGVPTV

[26] = biological target: Prothrombin (Homo sapiens, UniProt P00734); assay: Thrombin 1536 HTS Dose Response Confirmation. [Related pubchem assays: 1046 (Thrombin 1536 HTS; hits were confirmed in this assay)]; format: functional
[27] = biological target: T3, Mannose-6-phosphate isomerase (Homo sapiens, UniProt P34949); assay: human PMI inhibitors, high substrate, primary screen, biochemical, fluorescence intensity, high mannose 6-phosphate (AID 1220)
T3 sequence (P34949 whole entry): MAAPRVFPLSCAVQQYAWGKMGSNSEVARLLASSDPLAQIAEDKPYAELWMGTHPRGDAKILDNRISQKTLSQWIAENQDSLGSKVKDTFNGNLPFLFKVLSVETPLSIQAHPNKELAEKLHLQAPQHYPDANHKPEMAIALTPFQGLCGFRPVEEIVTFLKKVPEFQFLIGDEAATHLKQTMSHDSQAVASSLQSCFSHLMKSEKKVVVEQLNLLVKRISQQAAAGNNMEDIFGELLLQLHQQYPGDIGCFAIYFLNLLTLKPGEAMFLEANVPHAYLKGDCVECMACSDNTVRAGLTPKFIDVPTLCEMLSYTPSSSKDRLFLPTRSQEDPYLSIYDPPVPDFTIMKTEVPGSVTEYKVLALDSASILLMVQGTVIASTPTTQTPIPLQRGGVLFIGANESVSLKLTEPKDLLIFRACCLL

[28] = biological target: T2, Polyadenylate-binding protein 1; assay: PABP1 MLLE–PAM2 binding inhibitor potency, dose response, biochemical, fluorescence polarization, FITC-PAM2 peptide (AID 602259); format: functional; settings: read-out: IC50_Mean
[29] = biological target: T4, COUP transcription factor 2 (Homo sapiens, UniProt P24468); assay: Luminescence-based cell-based high throughput dose response assay to identify inhibitors of COUP-TFII (NR2F2).; format: functional;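 also: HEK293 cells transiently cotransfected with COUP-TFII expression vector and reporter; luciferase reporter luminescence driven by COUP-TFII from the pX2-168 reporter plasmid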
T4 sequence (P24468 whole entry): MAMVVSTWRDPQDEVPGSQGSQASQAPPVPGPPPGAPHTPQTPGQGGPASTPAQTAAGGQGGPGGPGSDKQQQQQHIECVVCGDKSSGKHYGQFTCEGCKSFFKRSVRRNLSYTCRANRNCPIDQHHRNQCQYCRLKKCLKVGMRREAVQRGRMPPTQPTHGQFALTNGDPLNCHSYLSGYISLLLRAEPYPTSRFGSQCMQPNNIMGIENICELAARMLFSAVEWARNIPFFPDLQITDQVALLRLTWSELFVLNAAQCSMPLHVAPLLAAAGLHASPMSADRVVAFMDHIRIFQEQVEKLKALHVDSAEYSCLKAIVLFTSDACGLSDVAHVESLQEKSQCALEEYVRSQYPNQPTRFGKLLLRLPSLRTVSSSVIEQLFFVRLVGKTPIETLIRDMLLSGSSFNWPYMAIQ

[30] = growth suppression of PTEN-null colon cells, dose response, cell-based, HCT116 PTEN knockout (AID 1047); format: functional;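 also: HCT116 colon tumor cells with PTEN knocked out; cells exposed to compound for 60 hours before readout; potency for loss of cell viability measured by luminescence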
[31] = cytotoxicity in HEK-293T cells, dose response, cytotoxicity control for TCR NF-kB inhibitor project, luminescence, T-cell screen hits (AID 489026); format: functional, cell-based;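 also: cells exposed to compound about 14 hours before the viability readout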
[32] = growth suppression of beta-catenin-knockout colon cells, dose response, cell-based, HCT116, human colon tumor (AID 1045); format: functional;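 also: HCT116 colon tumor cells with beta catenin knocked out; cells exposed to compound for 60 hours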

Chain of Paired box protein Pax-8 (Q06710 whole entry): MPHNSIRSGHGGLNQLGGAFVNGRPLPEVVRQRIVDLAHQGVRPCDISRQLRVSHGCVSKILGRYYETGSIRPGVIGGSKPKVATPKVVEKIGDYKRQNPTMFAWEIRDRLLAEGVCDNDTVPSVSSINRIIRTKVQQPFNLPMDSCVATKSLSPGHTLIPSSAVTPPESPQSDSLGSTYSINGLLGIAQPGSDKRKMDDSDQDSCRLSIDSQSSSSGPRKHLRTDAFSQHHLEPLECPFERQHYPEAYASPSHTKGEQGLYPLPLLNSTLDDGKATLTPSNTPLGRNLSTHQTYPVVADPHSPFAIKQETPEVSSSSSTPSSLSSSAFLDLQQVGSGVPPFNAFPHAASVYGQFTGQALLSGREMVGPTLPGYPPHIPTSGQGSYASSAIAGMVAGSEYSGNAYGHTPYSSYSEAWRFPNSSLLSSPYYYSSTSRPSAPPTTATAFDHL

C[C@H]1CCCCO[C@H](CN(C)C(=O)Nc2ccc(C(F)(F)F)cc2)[C@@H](C)CN([C@@H](C)CO)C(=O)c2cc(NC(=O)CCC(F)(F)F)ccc2O1
AC50 [1]: 6.57 µM (active) | AC50 [2]: 39.9 µM (active) | AC50 [3]: 54.7 µM (active)

COc1ccc(Cl)cc1NC(=O)CN(C)C(=O)c1ccc(N2CCCCCC2)c([N+](=O)[O-])c1
CC50 [4]: > 40 µM (active)

CCOC(=O)/C=c1\s/c(=C\c2c(OC)ccc3ccccc23)c(=O)n1CC(=O)NCC1CCCO1 (centres undefined)
EC50 [5]: 8.43 µM (active) | EC50 [6]: 10.5 µM (active) | EC50 [7]: 12.3 µM (active) | CC50 [4]: 12.6 µM (active)

CCc1cc2c(CN3CCN(Cc4ccccc4)CC3)cc(=O)oc2cc1O
EC50 [8]: > 69.5 µM (inactive)

Cc1ccc2[nH]c(C(=O)O)c(NC(=O)CN3CCN(c4cccc(C)c4C)CC3)c2c1
EC50 [9]: 5.05 µM (active) | AC50 [10]: 16.3 µM (active) | CC50 [11]: 13.9 µM (active) | EC50 [12]: > 50 µM (active)

Cc1cccc(N2CCN(C(=O)CCc3nc(O)c4ccccc4n3)CC2)c1C
EC50 [13]: > 53 µM (inactive) | IC50 [14]: > 47.1 µM (inactive) | IC50 [15]: > 79 µM (inactive)

Cc1cc2nc(-c3ccc(SCc4ccccn4)nc3)[nH]c2cc1C
EC50 [8]: 12.9 µM (inactive)

COc1cc(Nc2c3c(nc4ccccc24)CCC3)cc(OC)c1OC
EC50 [16]: 2.86 µM (active) | EC50 [17]: 2.38 µM (active) | EC50 [18]: 42.7 µM (inconclusive) | EC50 [19]: 18.5 µM (inconclusive)

CCCn1nnnc1NC(=O)c1cc(Cl)ccc1Cl
IC50 [20]: 5.95 µM (active) | CC50 [21]: > 20 µM (active)

O=C(N/N=C/c1ccc(Cl)cc1Cl)c1ccc2[nH]cnc2c1
IC50 [22]: > 100 µM (inactive) | IC50 [23]: 20.9 µM (active) | IC50 [24]: 51.7 µM (active)

CC(=O)N1C(=O)/C(=C2\SC(=S)N(c3c(C)n(C)n(-c4ccccc4)c3=O)C2=O)c2ccccc21
IC50 [25]: > 66 µM (inactive) | IC50 [26]: 8.97 µM (active) | IC50 [27]: > 50 µM (not active) | IC50 [28]: > 66 µM (inactive)

Cn1nc(CC(=O)Nc2ccc(N3CCN(C(=O)OC(C)(C)C)CC3)cc2)c2ccccc2c1=O
IC50 [29]: 4.32 µM (active) | EC50 [30]: 8.04 µM (active) | IC50 [31]: > 80 µM (inactive) | EC50 [32]: 5.89 µM (active)
